What was measured:
fibroblast cells = experiment: Cytotoxicity assay in fibroblast cells (EZ-Cytox); format: cell-based; settings: 100 µg/mL, 24 h, absorbance 450 nm/600 nm, relative to untreated control, mean ± S.D., n = 5
Description: The cytotoxicity of the RLC and SRLC nanoparticles was evaluated using fibroblast cells obtained from the Korean Cell Line Bank (Seoul, Republic of Korea). The fibroblast cells were cultured in high-glucose Dulbecco’s modified Eagle’s medium (DMEM) supplemented with 10% (v/v) fetal bovine serum (FBS) and 1% antibiotic–antimycotic solution. The cells were then seeded into a 96-well culture plate at a density of 1.0 × 10^4 cells per well and incubated for 1 h at 37 °C in a humidified atmosphere containing 5% CO2 to allow stabilization. Following stabilization, the cells were treated with RLC and SRLC nanoparticles at concentrations ranging from 0.1 to 100 […] for 24 h. Cell viability (n = 5) was evaluated using the EZ-Cytox cell viability assay kit, with absorbance readings taken at 450 nm and 600 nm using a microplate reader (SPECTROstar Nano, BMG LABTECH, Ortenberg, Germany). The viability of the treated cells was determined by comparing the UV absorbance values of the samples to those of the untreated control group.
To evaluate the cytotoxic effects of SRLC NPs, a cytotoxicity assay was performed using fibroblast cells at concentrations ranging from 0.1 to 100 µg/mL (Figure 6A).

[1] = Particle size by dynamic light scattering (DLS) in aqueous solution; format: physicochemical; settings: 1 mL distilled water containing 5% DMSO, semaglutide fixed at 0.1 mg, semaglutide alone 0.1 mg/mL, RLC alone 1 mg/mL, mean ± S.D., n = 3
Description: (§1) To determine the optimal formulation and final composition of the semaglutide–RLC nanoparticles (SRLC NPs), a precipitation evaluation experiment was conducted using various mass ratios (1:10, 1:20, 1:30, w/w) of semaglutide to RLC. Based on stability and particle size analysis, the 1:10 ratio was selected as the optimal formulation, and this ratio was maintained in the final product composition to ensure consistency in therapeutic efficacy and physicochemical properties. The resulting mixture was used immediately without undergoing a separate freeze-drying process. For nanoparticle preparation, semaglutide ([…]) was dissolved in 1 mL of DW, while RLC ([…]) was dissolved in 1 mL of DMSO. […] The stability of each formulation was assessed by measuring particle size at multiple time points (0, 0.5, 1, 2, 3, 4, and 5 days) using dynamic light scattering (DLS; Zetasizer Nano, Malvern Instruments, Worcestershire, UK). The zeta potential of both RLC alone and the semaglutide–RLC (1:10) formulation was also measured to evaluate the surface charge and colloidal stability of the nanoparticles. Additionally, in vivo stability was evaluated by preparing 1 mL of Dulbecco’s phosphate-buffered saline (DPBS) containing 10% fetal bovine serum (FBS) and 5% DMSO, followed by particle size measurements at different time points (0, 0.5, 1, and 2 days). […]

[2] = test system: high-fat diet (HFD)-fed mouse model; experiment: Oral glucose tolerance test (OGTT) in HFD-fed mice; format: in vivo, C57BL/6 mice; settings: day 64, 19 h fasting, oral glucose 2 g/kg, 0-180 min, glucometer, n = 3; RO 0.5 mg/kg, RLC 1 mg/kg, SRLC NPs 1.1 mg/kg s.c.
Description: (§2) All animal experiments were conducted under the standard regulations of the Institutional Animal Care and Use Committee (IACUC) at Konkuk University (ref. no. KU22078-1). The animals were housed in a controlled environment with regulated temperature and humidity, maintained under a 12 h light–dark cycle. Obesity was induced in 5-week-old male C57BL/6 mice through dietary control for 69 days. A total of 25 mice were used and divided into five experimental groups: negative control (regular diet, RD), positive control (high-fat diet, HFD), RO (0.5 mg/kg), RLC (1 mg/kg), and SRLC NPs (1.1 mg/kg). The RO dose was set at half that of RLC due to its molecular weight being approximately twice that of RLC, ensuring equivalent molar exposure. Additionally, the SRLC NP dose was adjusted to 1.1 mg/kg as it comprised 1 mg of RLC and 0.1 mg of semaglutide, allowing for the accurate comparison of therapeutic effects. While the RD group received a normal diet, the other groups were fed a high-fat diet (HFD) consisting of 60 kcal% fat (D12492, Research Diets, New Brunswick, NJ, USA). The body weights of the mice were measured weekly. Starting from day 28 of the dietary intervention, each group received their respective substances via subcutaneous injection every three days. […] Blood glucose levels were then measured at time intervals of 0, 15, 30, 60, 90, 120, and 180 min (n = 3).

[3] = Zeta potential measurement; format: physicochemical; settings: Zetasizer Nano; RLC alone and semaglutide–RLC (1:10) formulation; mean ± S.D.
Description: as §1

[4] = test system: high-fat diet (HFD)-fed mouse model; experiment: Histopathology (H&E and oil red O staining) of liver and adipose tissue in HFD-fed mice; format: in vivo, C57BL/6 mice; settings: for lipid staining and fat droplet accumulation in liver tissue (in words): H&E and ORO staining; for lipid staining and fat droplet accumulation in liver tissue (in words) / quantification of ORO staining: RO 0.5, RLC 1, SRLC NPs 1.1 mg/kg s.c.; for diameter of the adipocyte in sWAT: HFD group 60.32 ± 6.95 µm; for diameter of the adipocyte in sWAT / diameter of the adipocyte in eWAT: n = 7; for diameter of the adipocyte in eWAT: HFD group 64.12 ± 12.51 µm; for area of the adipocyte in sWAT: HFD group 78.86 ± 1.38%; for quantification of ORO staining: liver tissue, HFD group = 100.00 ± 15.00%
Description: All animal experiments were conducted under the standard regulations of the Institutional Animal Care and Use Committee (IACUC) at Konkuk University (ref. no. KU22078-1). The animals were housed in a controlled environment with regulated temperature and humidity, maintained under a 12 h light–dark cycle. Obesity was induced in 5-week-old male C57BL/6 mice through dietary control for 69 days. A total of 25 mice were used and divided into five experimental groups: negative control (regular diet, RD), positive control (high-fat diet, HFD), RO (0.5 mg/kg), RLC (1 mg/kg), and SRLC NPs (1.1 mg/kg). The RO dose was set at half that of RLC due to its molecular weight being approximately twice that of RLC, ensuring equivalent molar exposure. Additionally, the SRLC NP dose was adjusted to 1.1 mg/kg as it comprised 1 mg of RLC and 0.1 mg of semaglutide, allowing for the accurate comparison of therapeutic effects. While the RD group received a normal diet, the other groups were fed a high-fat diet (HFD) consisting of 60 kcal% fat (D12492, Research Diets, New Brunswick, NJ, USA). The body weights of the mice were measured weekly. Starting from day 28 of the dietary intervention, each group received their respective substances via subcutaneous injection every three days. Five days before the end of the experiment, an oral glucose tolerance test (OGTT) was conducted to assess glucose sensitivity. After 19 h of fasting, all experimental groups were administered a glucose solution orally (2 g/kg). Blood glucose levels were then measured at time intervals of 0, 15, 30, 60, 90, 120, and 180 min (n = 3). Blood glucose levels were assessed using a glucometer (G CARE, GC Medical Science, Yongin, Republic of Korea). On the final day of the experiment, after 14 h of fasting, the mice were anesthetized via intraperitoneal administration of 2,2,2-tribromoethanol (TBE), and blood samples were collected. Hepatotoxicity and lipid profiling analyses were conducted using the collected blood samples, while liver tissues were subjected to hematoxylin and eosin (H&E) and oil red O (ORO) staining for further evaluation. All analyses were performed by KP&T Technology (Cheongju, Republic of Korea).
Representative images of mice from the HFD group and the SRLC NPs-treated group on the final day of the experiment are shown in Figure 9A. To evaluate the pathological changes at the tissue level and the therapeutic effects of SRLC NPs, hematoxylin and eosin (H&E) staining and oil red O (ORO) staining were performed (Figure 9B). These staining analyses were conducted to confirm the reduction in hepatic fat accumulation and assess adipose tissue remodeling following SRLC NPs treatment. […] The area of the adipocyte in sWAT (n = 4) was as follows: HFD, 78.86 ± 1.38%; RO, 77.51 ± 2.52%; RLC, 72.72 ± 2.75%; and SRLC NPs, 47.45 ± 1.03% (Figure 9E). The diameter of the adipocyte in eWAT (n = 7) was the following: HFD, 64.12 ± 12.51 µm; RO, 59.53 ± 6.42 µm; RLC, 57.01 ± 7.04 µm; and SRLC NPs, 33.79 ± 3.62 µm (Figure 9F). The area of the adipocyte in eWAT (n = 4) was as follows: HFD, 76.44 ± 1.91%; RO, 79.30 ± 1.91%; RLC, 79.223 ± 1.53%; and SRLC NPs, 63.28 ± 2.94% (Figure 9G).

[5] = test system: high-fat diet (HFD)-fed mouse model; experiment: Anti-obesity effect (body weight) in high-fat diet (HFD)-fed mouse model; format: in vivo; settings: HFD-fed C57BL/6 mice, day 69, s.c. every three days from day 28; RO 0.5 mg/kg, SRLC NPs 1.1 mg/kg; mean ± S.D., n = 5
Description: as §2

[6] = conventional semaglutide formulations; ref [11],[12]; cited from earlier work
Source text: Obesity and non-alcoholic fatty liver disease (NAFLD) have emerged as critical health concerns in modern society, closely linked to diabetes, cardiovascular diseases, and metabolic syndrome. As one of the most rapidly increasing metabolic disorders worldwide, there is a continuous demand for the development of effective therapeutic agents and treatment strategies.

Row | SMILES | cell viability (fibroblast cells) [%] | particle size [1] [nm] | blood glucose response in OGTT (in words) [2] | zeta potential [3] [mV] | lipid staining and fat droplet accumulation in liver tissue (in words) [4] | diameter of the adipocyte in sWAT ([4]; H&E, mean ± S.D.) [µm] | diameter of the adipocyte in eWAT ([4]; H&E, mean ± S.D.) [µm] | area of the adipocyte in sWAT ([4]; H&E, mean ± S.D., n = 4) [%] | quantification of ORO staining ([4]; mean ± S.D., n = 4) [%] | area of the adipocyte in eWAT ([4]; H&E, HFD group 76.44 ± 1.91%, mean ± S.D., n = 4) [%] | body weight at the end of the experiment [5] [g] | oral bioavailability [6]
1 | CC(C)c1nc(N(C)S(C)(=O)=O)nc(-c2ccc(F)cc2)c1C=CC(O)CC(O)CC(=O)NCCNC(=O)CCC(C)C1CCC2C3C(O)CC4CC(O)CCC4(C)C3CCC12C (stereo not drawn) [RLC] | 85.60 ± 2.87 | 613.30 ± 26.86 | sharp increase in blood glucose levels immediately after administration, followed by a gradual decline | −22.08 ± 0.48 | abnormal fat droplet accumulation | 49.79 ± 7.09 | 57.01 ± 7.04 | 72.72 ± 2.75 | 49.50 ± 9.53 | – | – | –
2 | CC(C)c1nc(N(C)S(C)(=O)=O)nc(-c2ccc(F)cc2)c1/C=C/[C@@H](O)C[C@@H](O)CC(=O)O [RO, Rosuvastatin calcium] | – | – | sharp increase in blood glucose levels immediately after administration, followed by a gradual decline | – | abnormal fat droplet accumulation | 51.20 ± 8.99 | 59.53 ± 6.42 | 77.51 ± 2.52 | 70.50 ± 8.02 | 79.30 ± 1.91 | 36.20 ± 2.34 | –
3 | CC[C@H](C)[C@H](NC(=O)[C@H](Cc1ccccc1)NC(=O)[C@H](CCC(=O)O)NC(=O)[C@H](CCCCNC(=O)COCCOCCNC(=O)COCCOCCNC(=O)CC[C@H](NC(=O)CCCCCCCCCCCCCCCCC(=O)O)C(=O)O)NC(=O)[C@H](C)NC(=O)[C@H](C)NC(=O)[C@H](CCC(N)=O)NC(=O)CNC(=O)[C@H](CCC(=O)O)NC(=O)[C@H](CC(C)C)NC(=O)[C@H](Cc1ccc(O)cc1)NC(=O)[C@H](CO)NC(=O)[C@H](CO)NC(=O)[C@@H](NC(=O)[C@H](CC(=O)O)NC(=O)[C@H](CO)NC(=O)[C@@H](NC(=O)[C@H](Cc1ccccc1)NC(=O)[C@@H](NC(=O)CNC(=O)[C@H](CCC(=O)O)NC(=O)C(C)(C)NC(=O)[C@@H](N)Cc1cnc[nH]1)[C@@H](C)O)[C@@H](C)O)C(C)C)C(=O)N[C@@H](C)C(=O)N[C@@H](Cc1c[nH]c2ccccc12)C(=O)N[C@@H](CC(C)C)C(=O)N[C@H](C(=O)N[C@@H](CCCNC(=N)N)C(=O)NCC(=O)N[C@@H](CCCNC(=N)N)C(=O)NCC(=O)O)C(C)C [semaglutide] | – | – | – | – | – | – | – | – | – | – | – | ~ 1%

— paper PMC12030043, “Preparation and Therapeutic Evaluation of Engineered Semaglutide and Statin–Lipid Conjugate-Based Nanoparticle” (Pharmaceutics, 2025)
